We go through two compounds from patent US20260250278A1, “PHENYL-SUBSTITUTED DIHYDRONAPHTHYRIDINE COMPOUNDS, AND PREPARATION AND USE THEREOF” (SUZHONG PHARMACEUTICAL GROUP CO., LTD., priority 2022, published 2026).

A short description of data set [1]: Pharmacokinetic test of mice (intravenous administration). In kind it is in vivo. The following applies: mouse, plasma; CD1 mice, intravenous 1 mg/kg. The protocol: This experiment was intended to evaluate a pharmacokinetic behavior of a compound after intravenous injection or intragastric administration in the mice. Intravenous injection administration: a test compound was prepared into 0.2 mg/mL clear solution, a solvent was 10% ethanol/40% polyethylene glycol 400/50% ultrapure water, and after administration, plasma was collected 0.083 hour, 0.25 hour, 0.5 hour, 1 hour, 2 hours, 4 hours, 8 hours, 24 hours and 48 hours later.
(§1) A concentration of the test compound in the plasma was determined by high-performance liquid chromatography-tandem mass spectrometry (LC-MS/MS). Retention time, chromatogram collection and chromatogram integration of compounds and internal standards were treated by software Analyst (Applied Biosystems), and data statistics was treated by software Analyst (Applied Biosystems).
(§2) A plasma concentration was treated by a non-atrioventricular model of Winnonlin™ Version 6.1 (Pharsight, Mountain View, CA) pharmacokinetic software, and pharmacokinetic parameters were calculated by a linear logarithmic trapezoid method.

Data set [2] in a line: Pharmacokinetic test of rats (intravenous and intragastric administration). It is filed as in vivo. The following applies: SD rats. On the procedure: This experiment was intended to evaluate a pharmacokinetic behavior of an implementing compound after intravenous injection or intragastric administration in the rats. Intravenous injection administration: a test compound was prepared into 0.2 mg/mL clear solution, a solvent was 10% ethanol, 40% polyethylene glycol 400 and 50% water, and after administration, plasma was collected 0.083 hour, 0.25 hour, 0.5 hour, 1 hour, 2 hours, 4 hours, 8 hours and 24 hours later. Intragastric administration: a test compound was prepared into 1 mg/mL clear solution, a solvent was 10% ethanol/40% polyethylene glycol 400/50% water, and after administration, plasma was collected 0.25 hour, 0.5 hour, 1 hour, 2 hours, 4 hours, 8 hours and 24 hours later.
as §1, §2
Pharmacokinetic parameters of the compounds in the rats with an intravenous injection dose of 1 mg/kg and an intragastric and oral dose of 5 mg/kg were as shown in Table 20 below.

A further data set addresses CYP3A4 (Homo sapiens, UniProt P08684). As to the kind of experiment: biochemical. In kind it is in vitro ADME.
Where [3] appears, read: rat, plasma, intragastric and oral administration 5 mg/kg.
The mark [4] stands for this setting: rat, plasma, intravenous 1 mg/kg.

Molecules are shown by their SMILES.

CYP3A4, sequence (P08684 2-503 limits assumed): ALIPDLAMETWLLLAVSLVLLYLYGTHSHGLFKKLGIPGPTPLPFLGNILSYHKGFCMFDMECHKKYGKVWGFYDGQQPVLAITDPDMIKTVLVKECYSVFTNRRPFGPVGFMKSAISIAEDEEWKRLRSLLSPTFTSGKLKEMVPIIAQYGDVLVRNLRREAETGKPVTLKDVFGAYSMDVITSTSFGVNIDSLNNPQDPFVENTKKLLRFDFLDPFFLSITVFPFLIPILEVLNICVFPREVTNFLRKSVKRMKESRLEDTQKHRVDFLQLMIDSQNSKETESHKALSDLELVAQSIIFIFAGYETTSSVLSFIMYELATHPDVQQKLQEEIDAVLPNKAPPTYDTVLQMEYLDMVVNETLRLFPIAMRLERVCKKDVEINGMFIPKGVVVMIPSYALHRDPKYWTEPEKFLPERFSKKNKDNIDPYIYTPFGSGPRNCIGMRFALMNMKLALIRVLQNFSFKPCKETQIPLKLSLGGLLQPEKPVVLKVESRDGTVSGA

By AUC(0-t) is commonly meant the area under the concentration-time curve up to a stated or last time point. A low value points to less exposure. Turning to `CCOc1nc2ccsc2c2c1[C@H](c1ccc(C#N)cc1OC)C(C(N)=O)=C(C)N2` [Example 38, (S)-6-(4-cyano-2-methoxyphenyl)-5-ethoxy-8-methyl-6,9-dihydrothieno[3,2-h][1,6]naphthyridine-7-formamide], in data set [1], the AUC(0-t) was 2.55 µg·h/mL.
The term Cmax denotes the maximum level reached in the sampled fluid or tissue. Broadly, the clearance is a measure of how efficiently the substance is removed, as volume per time. A lower clearance goes with a low capacity for elimination. As usually defined, the half-life is the time needed for the level to fall by half in the phase considered. Low readings indicate rapid decline, high ones slow decline. The IC50 is the concentration that inhibits the measured activity by half. Take `CCOc1ncc(C)c2c1[C@H](c1ccc(C#N)cc1OC)C(C(N)=O)=C(C)N2` [Finerenone, reference compound]: in data set [2] (intragastric and oral administration 5 mg/kg), the F was 60.3%. In data set [2] (setting [3]), this compound came in with an AUC(0-t) of 307 µg·h/mL and a Cmax of 23800 ng/mL. In data set [2] (setting [4]), this compound showed an area under the curve AUC(0-t) of 91.2 µg·h/mL, a clearance of 0.34 mL/min/kg and a half-life of 9.62 h. The compound also displayed a concentration for half-maximal inhibition (IC50) at CYP3A4 (CYP3A4-5M IC50, human CYP3A4, CYP3A4-5M) of 9.98 µM. It took 8.02 µM to reach half-maximal inhibition on CYP3A4 (CYP3A4-5T IC50, human CYP3A4, CYP3A4-5T) (IC50). The same compound registered an exposure AUC(0-t) in data set [1] of 142 µg·h/mL.
